Tested on: 485176-168-R4-J1-PDC spheroids with HUVEC/MSC, viability
Experiment: Anticancer human tumor 485176-168-R4-J1-PDC patient-derived pancreatic adenocarcinoma cell line growth inhibition [GQUAD]
Details: for IC50: curve of first compound; for viability, T/C: stronger effect = lower value
Method in brief: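 Tumor cells were grown as complex spheroids with HUVEC endothelial cells and mesenchymal stem cells as stroma. G-quadruplex stabilizers were combined with targeted agents over half-log dilutions from near the clinical Cmax, or from 10 microM.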

[1] = second compound 0.0316 µM, first compound 0.0316 µM
[2] = second compound 0.0316 µM, first compound 0.316 µM
[3] = second compound 0.1 µM, first compound 0.0316 µM
[4] = second compound 0.1 µM, first compound 0.316 µM
[5] = second compound 0.316 µM, first compound 0.0316 µM
[6] = second compound 0.316 µM, first compound 0.316 µM
[7] = second compound 1 µM, first compound 0.0316 µM
[8] = second compound 1 µM, first compound 0.316 µM
[9] = second compound 3.16 µM, first compound 0.0316 µM
[10] = second compound 3.16 µM, first compound 0.316 µM
[11] = second compound 10 µM, first compound 0.0316 µM
[12] = second compound 10 µM, first compound 0.316 µM
[13] = second compound 0.0316 µM, first compound 0.1 µM
[14] = second compound 0.0316 µM, first compound 1 µM
[15] = second compound 0.0316 µM, first compound 3.16 µM
[16] = second compound 0.0316 µM, first compound 10 µM
[17] = second compound 0.1 µM, first compound 0.1 µM
[18] = second compound 0.1 µM, first compound 1 µM
[19] = second compound 0.1 µM, first compound 3.16 µM
[20] = second compound 0.1 µM, first compound 10 µM
[21] = second compound 0.316 µM, first compound 0.1 µM
[22] = second compound 0.316 µM, first compound 1 µM
[23] = second compound 0.316 µM, first compound 3.16 µM
[24] = second compound 0.316 µM, first compound 10 µM
[25] = second compound 1 µM, first compound 0.1 µM
[26] = second compound 1 µM, first compound 1 µM
[27] = second compound 1 µM, first compound 3.16 µM
[28] = second compound 1 µM, first compound 10 µM
[29] = second compound 3.16 µM, first compound 0.1 µM
[30] = second compound 3.16 µM, first compound 1 µM
[31] = second compound 3.16 µM, first compound 3.16 µM
[32] = second compound 3.16 µM, first compound 10 µM
[33] = second compound 10 µM, first compound 0.1 µM
[34] = second compound 10 µM, first compound 1 µM
[35] = second compound 10 µM, first compound 3.16 µM
[36] = second compound 10 µM, first compound 10 µM
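Note: spheroids exposed to compounds for seven days before readout.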
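Throughout, for viability, T/C: percent viability relative to DMSO vehicle control wells as 100%.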

For `CC[C@@]1(O)C(=O)OCc2c1cc1n(c2=O)Cc2cc3c(CN(C)C)c(O)ccc3nc2-1` + Cc1[nH]c2ccc(F)cc2c1-c1nc2c3cccnc3c3ncccc3c2[nH]1, the IC50 (second compound 0.0316 µM) was 134 nM, the IC50 (second compound 0.1 µM) was 178 nM and the IC50 (second compound 0.316 µM) was 89 nM. For the same compound, the IC50 (second compound 1 µM) was 125 nM, the IC50 (second compound 3.16 µM) was 121 nM and the IC50 (second compound 10 µM) was 148 nM. It also gave a viability, T/C (second compound 0.0316 µM, first compound 0.000999 µM) of 124%, a viability, T/C (second compound 0.0316 µM, first compound 0.00316 µM) of 107% and a viability, T/C (second compound 0.0316 µM, first compound 0.00999 µM) of 99.4%. For the same compound, the viability, T/C [1] was 70.6%, the viability, T/C (second compound 0.0316 µM, first compound 0.0999 µM) was 57.5% and the viability, T/C [2] was 34.4%. For the same compound, the viability, T/C (second compound 0.1 µM, first compound 0.000999 µM) was 85.6%, the viability, T/C (second compound 0.1 µM, first compound 0.00316 µM) was 83.4% and the viability, T/C (second compound 0.1 µM, first compound 0.00999 µM) was 97.1%. It also gave a viability, T/C [3] of 89.8%, a viability, T/C (second compound 0.1 µM, first compound 0.0999 µM) of 59% and a viability, T/C [4] of 41.1%. The viability, T/C (second compound 0.316 µM, first compound 0.000999 µM) was 106%, the viability, T/C (second compound 0.316 µM, first compound 0.00316 µM) was 94.7% and the viability, T/C (second compound 0.316 µM, first compound 0.00999 µM) was 108%. It also gave a viability, T/C [5] of 75.6%, a viability, T/C (second compound 0.316 µM, first compound 0.0999 µM) of 50.3% and a viability, T/C [6] of 38.5%. The viability, T/C (second compound 1 µM, first compound 0.000999 µM) was 93.3%, the viability, T/C (second compound 1 µM, first compound 0.00316 µM) was 105% and the viability, T/C (second compound 1 µM, first compound 0.00999 µM) was 118%. For the same compound, the viability, T/C [7] was 82.9%, the viability, T/C (second compound 1 µM, first compound 0.0999 µM) was 56% and the viability, T/C [8] was 36.5%. For the same compound, the viability, T/C (second compound 3.16 µM, first compound 0.000999 µM) was 88.1%, the viability, T/C (second compound 3.16 µM, first compound 0.00316 µM) was 99.7% and the viability, T/C (second compound 3.16 µM, first compound 0.00999 µM) was 79.9%. The viability, T/C [9] was 65.3%, the viability, T/C (second compound 3.16 µM, first compound 0.0999 µM) was 57.2% and the viability, T/C [10] was 33.8%. The viability, T/C (second compound 10 µM, first compound 0.000999 µM) was 81.5%, the viability, T/C (second compound 10 µM, first compound 0.00316 µM) was 101% and the viability, T/C (second compound 10 µM, first compound 0.00999 µM) was 68.3%. For the same compound, the viability, T/C [11] was 77.2%, the viability, T/C (second compound 10 µM, first compound 0.0999 µM) was 58.2% and the viability, T/C [12] was 34%.
`COc1cccc2c1C(=O)c1c(O)c3c(c(O)c1C2=O)CC(O)(C(=O)CO)CC3OC1CC(N)C(O)C(C)O1` (stereo not drawn) + Cc1[nH]c2ccc(F)cc2c1-c1nc2c3cccnc3c3ncccc3c2[nH]1 gave an IC50 (second compound 0.0316 µM) of 391 nM, an IC50 (second compound 0.1 µM) of 267 nM and an IC50 (second compound 0.316 µM) of 259 nM. For the same compound, the IC50 (second compound 1 µM) was 433 nM, the IC50 (second compound 3.16 µM) was 249 nM and the IC50 (second compound 10 µM) was 314 nM. For the same compound, the viability, T/C [1] was 90.1%, the viability, T/C [13] was 71.5% and the viability, T/C [2] was 61.1%. For the same compound, the viability, T/C [14] was 14.7%, the viability, T/C [15] was 4.77% and the viability, T/C [16] was 0.13%. The viability, T/C [3] was 106%, the viability, T/C [17] was 71.6% and the viability, T/C [4] was 49.5%. The viability, T/C [18] was 23.3%, the viability, T/C [19] was 3.92% and the viability, T/C [20] was 0.39%. The viability, T/C [5] was 81.4%, the viability, T/C [21] was 65.9% and the viability, T/C [6] was 47.4%. For the same compound, the viability, T/C [22] was 23.6%, the viability, T/C [23] was 3.52% and the viability, T/C [24] was 0.18%. For the same compound, the viability, T/C [7] was 86.1%, the viability, T/C [25] was 72.5% and the viability, T/C [8] was 60.9%. It also gave a viability, T/C [26] of 26.8%, a viability, T/C [27] of 4.08% and a viability, T/C [28] of 0.14%. For the same compound, the viability, T/C [9] was 82.9%, the viability, T/C [29] was 59.3% and the viability, T/C [10] was 52%. It also gave a viability, T/C [30] of 24.9%, a viability, T/C [31] of 19.5% and a viability, T/C [32] of 0.2%. It also gave a viability, T/C [11] of 82%, a viability, T/C [33] of 70.6% and a viability, T/C [12] of 50.8%. It also gave a viability, T/C [34] of 21.8%, a viability, T/C [35] of 3.95% and a viability, T/C [36] of 0.38%.
Compound `O=c1[nH]cc(F)c(=O)[nH]1` + Cc1cnc(CNC(=O)c2c(=O)c3ccc(N4CCCN(C)CC4)nc3n3c2sc2ccccc23)cn1 has an IC50 (second compound 0.0316 µM) of 847 nM, an IC50 (second compound 0.1 µM) of 272 nM and an IC50 (second compound 0.316 µM) of 248 nM. It also gave an IC50 (second compound 1 µM) of 202 nM, an IC50 (second compound 3.16 µM) of less than 31.6 nM and an IC50 (second compound 10 µM) of less than 31.6 nM. The viability, T/C [1] was 84.7%, the viability, T/C [13] was 77.4% and the viability, T/C [2] was 66.1%. For the same compound, the viability, T/C [14] was 45.9%, the viability, T/C [15] was 43.5% and the viability, T/C [16] was 43.6%. The viability, T/C [3] was 63.3%, the viability, T/C [17] was 73.5% and the viability, T/C [4] was 47.2%. It also gave a viability, T/C [18] of 47.1%, a viability, T/C [19] of 46.4% and a viability, T/C [20] of 43.6%. It also gave a viability, T/C [5] of 53.8%, a viability, T/C [21] of 66.1% and a viability, T/C [6] of 47.4%. For the same compound, the viability, T/C [22] was 45.3%, the viability, T/C [23] was 35.1% and the viability, T/C [24] was 45.7%. For the same compound, the viability, T/C [7] was 50.5%, the viability, T/C [25] was 54.7% and the viability, T/C [8] was 48.3%. For the same compound, the viability, T/C [26] was 38.2%, the viability, T/C [27] was 36.4% and the viability, T/C [28] was 41%. For the same compound, the viability, T/C [9] was 40.6%, the viability, T/C [29] was 44.1% and the viability, T/C [10] was 37.2%. For the same compound, the viability, T/C [30] was 32.8%, the viability, T/C [31] was 34.5% and the viability, T/C [32] was 31.3%. The viability, T/C [11] was 41.5%, the viability, T/C [33] was 45% and the viability, T/C [12] was 33.5%. The viability, T/C [34] was 30.3%, the viability, T/C [35] was 34.4% and the viability, T/C [36] was 34.3%.
`CC(=O)O[C@H]1C(=O)[C@@]2(C)[C@H]([C@H](OC(=O)c3ccccc3)[C@]3(O)C[C@H](OC(=O)[C@H](O)[C@@H](NC(=O)c4ccccc4)c4ccccc4)C(C)=C1C3(C)C)[C@]1(OC(C)=O)CO[C@@H]1C[C@@H]2O` + CN(C)c1ccc(Nc2c3ccc(NC(=O)CCN4CCCC4)cc3nc3cc(NC(=O)CCN4CCCC4)ccc23)cc1 showed an IC50 (second compound 0.0316 µM) of less than 31.6 nM, an IC50 (second compound 0.1 µM) of less than 31.6 nM and an IC50 (second compound 0.316 µM) of less than 31.6 nM. It also gave an IC50 (second compound 1 µM) of less than 31.6 nM, an IC50 (second compound 3.16 µM) of less than 31.6 nM and an IC50 (second compound 10 µM) of less than 31.6 nM. For the same compound, the viability, T/C [1] was 34.3%, the viability, T/C [13] was 14.3% and the viability, T/C [2] was 14.3%. It also gave a viability, T/C [14] of 11.6%, a viability, T/C [15] of 11% and a viability, T/C [16] of 14.1%. The viability, T/C [3] was 31.9%, the viability, T/C [17] was 15% and the viability, T/C [4] was 14.1%. The viability, T/C [18] was 14.9%, the viability, T/C [19] was 12% and the viability, T/C [20] was 11.3%. It also gave a viability, T/C [5] of 33.3%, a viability, T/C [21] of 15.6% and a viability, T/C [6] of 12.9%. The viability, T/C [22] was 13.7%, the viability, T/C [23] was 11.5% and the viability, T/C [24] was 10.9%. The viability, T/C [7] was 31%, the viability, T/C [25] was 13.3% and the viability, T/C [8] was 12.2%. For the same compound, the viability, T/C [26] was 14%, the viability, T/C [27] was 11.5% and the viability, T/C [28] was 9.76%. It also gave a viability, T/C [9] of 36.9%, a viability, T/C [29] of 11.3% and a viability, T/C [10] of 16.1%. For the same compound, the viability, T/C [30] was 13.6%, the viability, T/C [31] was 12.5% and the viability, T/C [32] was 11.3%. It also gave a viability, T/C [11] of 28.3%, a viability, T/C [33] of 12.4% and a viability, T/C [12] of 13.1%. The viability, T/C [34] was 11.5%, the viability, T/C [35] was 10.6% and the viability, T/C [36] was 12%.

From PubChem BioAssay AID2060509 (Molecular Pharmacology Branch, DTP, NCI, 2025)
